Measured values: ChEMBL document CHEMBL6078682, “Circumventing Imatinib resistance in CML: Novel Telmisartan-based cell death modulators with improved activity and stability” (Eur J Med Chem, 2025)
Values after ≈ are worked out from the molar mass of the structure shown. Active and inactive are the calls of the source. The rule behind the calls is not given here.

Key:
[1] = Retention time of compound by HPLC analysis; format: physicochemical
[2] = Stability of compound in PBS buffer incubated for 8 to 24 hrs by HPLC analysis; format: physicochemical; conditions: time 8-24 hrs
[3] = Stability in cell culture medium containing fetal bovine serum assessed as compound remaining at 200 uM at 37 degreeC measured after 72 hrs by RP-HPLC analysis; format: ADME, cell-free; conditions: cattle, read-out: Stability
[4] = tested on: K562-IMA[r]; assay: Cytotoxicity against human Imatinib-resistant K562 cells assessed as effect on metabolic activity at 10 uM incubated for 72 hrs by MTT assay; format: functional, cell-based
[5] = Cytotoxicity against human HS5 cells assessed as effect on metabolic activity at 10 uM incubated for 72 hrs by MTT assay; format: toxicity, cell-based; conditions: hs5, 72 h
[6] = tested on: COS-7; assay: Cytotoxicity against african green monkey COS-7 cells assessed as effect on metabolic activity at 10 uM incubated for 72 hrs by MTT assay; format: toxicity, cell-based; conditions: chlorocebus aethiops, cos-7, 72 h
[7] = tested on: K562; assay: Re-sensitization of human K562 cells to imatinib assessed as reduction in metabolic activity at 5 uM in presence of 1 uM imatinib by EZ4U assay; format: functional, cell-based
[8] = tested on: K562; assay: Re-sensitization of human K562 cells to imatinib assessed as reduction in metabolic activity by measuring maximal sensitizing concentration in presence of imatinib by EZ4U assay; format: functional, cell-based; conditions: read-out: EC50
[9] = biological target: T1, Liver carboxylesterase (Sus scrofa, UniProt Q29550); assay: Stability of the compound assessed as porcine liver esterase-mediated hydrolysis by measuring half life at 800 uM measured after 180 mins by HPLC analysis; format: ADME; conditions: pig
T1 sequence (Q29550 whole entry): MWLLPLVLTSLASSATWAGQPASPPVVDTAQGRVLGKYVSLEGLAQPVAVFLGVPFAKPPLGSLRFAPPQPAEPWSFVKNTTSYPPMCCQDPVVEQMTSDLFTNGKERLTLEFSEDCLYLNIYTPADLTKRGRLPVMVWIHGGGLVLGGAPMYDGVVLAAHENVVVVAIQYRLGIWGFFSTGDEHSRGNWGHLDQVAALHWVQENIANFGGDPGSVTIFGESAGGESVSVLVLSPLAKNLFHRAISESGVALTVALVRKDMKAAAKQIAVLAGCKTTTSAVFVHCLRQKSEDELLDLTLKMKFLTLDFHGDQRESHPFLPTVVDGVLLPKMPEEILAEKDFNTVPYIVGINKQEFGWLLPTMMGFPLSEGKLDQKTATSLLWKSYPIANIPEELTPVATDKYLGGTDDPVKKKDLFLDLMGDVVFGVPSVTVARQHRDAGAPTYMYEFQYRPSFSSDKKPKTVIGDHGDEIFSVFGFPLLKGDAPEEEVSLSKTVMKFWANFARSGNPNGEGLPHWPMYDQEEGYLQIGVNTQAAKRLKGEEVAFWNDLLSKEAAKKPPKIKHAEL

[10] = biological target: T1, Liver carboxylesterase; assay: Stability of the compound assessed as porcine liver esterase-mediated hydrolysis at 800 uM measured after 180 mins by HPLC analysis; format: ADME; conditions: pig, isolated protein, 3 h
[11] = Stability of the compound assessed as Pseudomonas aeruginosa Amidase-mediated hydrolysis at 800 uM measured after 6 hrs by HPLC analysis; format: ADME; conditions: isolated protein
[12] = Drug uptake in human Imatinib-resistant K562 cells assessed as increase in fluorescent intensity measured after 24 hrs by coomassie brilliant blue staining based analysis; format: ADME, cell-based; conditions: k562-ima[r]
[13] = Drug uptake in human Imatinib-resistant K562 cells assessed as increase in fluorescent intensity measured after 3 hrs by coomassie brilliant blue staining based analysis; format: ADME, cell-based; conditions: k562-ima[r]
[14] = Stability of the compound assessed as Pseudomonas aeruginosa Amidase-mediated hydrolysis at 800 uM measured after 24 hrs by HPLC analysis; format: ADME; conditions: isolated protein
[15] = tested on: amidase; assay: Stability of the compound assessed as Pseudomonas aeruginosa Amidase-mediated hydrolysis by measuring half life at 800 uM measured after 24 hrs by HPLC analysis; format: ADME
[16] = Drug uptake in human Imatinib-resistant K562 cells assessed as increase in fluorescent intensity measured after 1 to 24 hrs by coomassie brilliant blue staining based analysis; format: ADME, cell-based; conditions: k562-ima[r], time 1-24 hrs
[17] = Solubility of compound in DMSO measured for 30 mins by UV-spectroscopy analysis; format: physicochemical
[18] = Drug uptake in human Imatinib-resistant K562 cells assessed as increase in fluorescent intensity measured after 1 hr by coomassie brilliant blue staining based analysis; format: ADME, cell-based; conditions: k562-ima[r]
[19] = Drug uptake in human Imatinib-resistant K562 cells assessed as increase in fluorescent intensity measured at 24 hrs by coomassie brilliant blue staining based analysis; format: ADME, cell-based; conditions: k562-ima[r]
[20] = tested on: K562; assay: Re-sensitization of human K562 cells to imatinib assessed as reduction in metabolic activity at 5 uM in presence of imatinib by EZ4U assay; format: functional, cell-based
[21] = tested on: K562; assay: Re-sensitization of human K562 cells to imatinib assessed as reduction in metabolic activity at 10 uM in presence of imatinib by EZ4U assay; format: functional, cell-based

| SMILES | Retention_time [1] [min] | Stability [2] | remaining at 72 h, 200 µM [3] [%] | half-life at 800 µM [9] [h] | Stability [10] | Activity [4] | Activity [5] | Activity [6] | Activity [7] | maximal sensitizing concentration [8] [nM] | further results |
| --- | --- | --- | --- | --- | --- | --- | --- | --- | --- | --- | --- |
| CCCNC(=O)c1ccccc1-c1ccc(Cn2c(CCC)nc3ccccc32)cc1 | < 11.1 | Stable | 95.1 |  |  | inactive | Non-toxic | Non-toxic | Active | 4500 |  |
| CCCOC(=O)c1ccccc1-c1ccc(Cn2c(CCC)nc3ccccc32)cc1 | < 13.6 | Stable | 75.9 | 1.16 |  | inactive | Non-toxic | Non-toxic | Active | 1800 |  |
| CCCCNC(=O)c1ccccc1-c1ccc(Cn2c(CCC)nc3ccccc32)cc1 | < 11.6 | Stable | 97.1 |  | Stable | inactive | Non-toxic | Non-toxic | Active | 1300 | Stability [11]: Stable |
| CCCCOC(=O)c1ccccc1-c1ccc(Cn2c(CCC)nc3ccccc32)cc1 | < 13.8 | Stable | 78 | 1.37 |  | inactive | Non-toxic | Non-toxic | Active | 1600 |  |
| CCCc1nc2ccccc2n1Cc1ccc(-c2ccccc2C(=O)NC(C)(C)C)cc1 | 11.5 | Stable | 100 |  | Stable | inactive | Non-toxic | Non-toxic | Active | 5200 | Stability [11]: Stable |
| CCCc1nc2ccccc2n1Cc1ccc(-c2ccccc2C(=O)NC)cc1 | 9.9 | Stable | 93.4 |  | Stable | inactive | Non-toxic | Non-toxic | inactive | 11200 | Stability [14]: Stable; half-life at 800 µM [15]: 33.6 h; Drug uptake [16]: Not_active; Drug uptake [12]: Not_active |
| CCCc1nc2ccccc2n1Cc1ccc(-c2ccccc2C(=O)NC(C)C)cc1 | 10.8 | Stable | 99.1 |  |  | inactive | Non-toxic | Non-toxic | Active | 4800 |  |
| CCCc1nc2ccccc2n1Cc1ccc(-c2ccccc2C(=O)OC(C)(C)C)cc1 | 13.4 | Stable | 97.2 |  |  | inactive | Non-toxic | Non-toxic | Active | 2900 |  |
| CCCc1nc2ccccc2n1Cc1ccc(-c2ccccc2C(=O)NCC)cc1 | < 10.3 | Stable | 95.1 |  | Stable | inactive | Non-toxic | Non-toxic | Active | 6200 | Stability [14]: Stable; half-life at 800 µM [15]: 65 h |

More lines, main results first:

| Retention_time [1] [min] | Stability [2] | remaining at 72 h, 200 µM [3] [%] | half-life at 800 µM [9] [h] | Stability [10] | SMILES | Activity [4] | Activity [5] | Activity [6] | Activity [7] | maximal sensitizing concentration [8] [nM] | further results |
| --- | --- | --- | --- | --- | --- | --- | --- | --- | --- | --- | --- |
| 13.7 | Stable | 94.8 | 4.67 |  | CCCc1nc2ccccc2n1Cc1ccc(-c2ccccc2C(=O)Oc2ccccc2)cc1 | inactive | Non-toxic | Non-toxic | Active | 1500 | Drug uptake [12]: 15.7 nmol/mg; Drug uptake [13]: 13.1 nmol/mg |
| 13.6 | Stable | 102 |  | Stable | CCCc1nc2ccccc2n1Cc1ccc(-c2ccccc2C(=O)Nc2ccc(Oc3ccccc3)cc2)cc1 | inactive | Non-toxic | Non-toxic | Active | 1300 | Stability [11]: Stable |
| < 12.8 | Stable | 71.9 | 1.05 |  | CCCc1nc2ccccc2n1Cc1ccc(-c2ccccc2C(=O)OCC)cc1 | inactive | Non-toxic | Non-toxic | Active | 2100 |  |
| 15.3 | Stable |  |  |  | CCCc1nc2ccccc2n1Cc1ccc(-c2ccccc2C(=O)Oc2ccc(-c3ccccc3)cc2)cc1 |  |  |  |  |  | solubility at 0.5 h [17]: 16 mM (≈ 8.36 mg/mL) |
| 13.1 | Stable | 91.9 |  |  | CCCc1nc2ccccc2n1Cc1ccc(-c2ccccc2C(=O)OC(C)C)cc1 | inactive | Non-toxic | Non-toxic | Active | 2200 |  |
| 12 | Stable | 98.4 |  | Stable | CCCc1nc2ccccc2n1Cc1ccc(-c2ccccc2C(=O)Nc2ccccc2)cc1 | inactive | Non-toxic | Non-toxic | Active | 1600 | Stability [11]: Stable; Drug uptake [13]: 2.7 nmol/mg; Drug uptake [18]: 1.9 nmol/mg; Drug uptake [19]: 14.5 nmol/mg |
| 12.4 | Stable | 67.8 | 0.917 |  | CCCc1nc2ccccc2n1Cc1ccc(-c2ccccc2C(=O)OC)cc1 | inactive | Non-toxic | Non-toxic |  | 2400 | Activity [20]: Active; Drug uptake [12]: 4.7 nmol/mg; Drug uptake [13]: 3.5 nmol/mg; Drug uptake [18]: 3 nmol/mg |
| 10.8 |  |  |  |  | CCCc1nc2ccccc2n1Cc1ccc(-c2ccccc2C(=O)O)cc1 |  |  |  |  |  | Activity [21]: Active |
| 15.2 | Stable | 99.8 | 6.17 |  | CCCc1nc2ccccc2n1Cc1ccc(-c2ccccc2C(=O)Oc2ccc(Oc3ccccc3)cc2)cc1 | inactive | Non-toxic | Non-toxic | Active | 2500 | solubility at 0.5 h [17]: 22 mM (≈ 11.9 mg/mL) |
